Values belong to the compound of their own block, whether it stands above or below them.
How the values were obtained:
[1] = tested on: ASIC1a; parameters: method as in PMID 25196733; settings: cited from earlier work
[2] = tested on: ASIC1a-containing channels; parameters: method as in PMID 11588175; settings: read-out: IC50, inhibition of ASIC1a-containing channels; cited from earlier work
[3] = tested on: ASIC3-containing channels; parameters: method as in PMID 11588175; settings: read-out: IC50, inhibition of ASIC3-containing channels; cited from earlier work
[4] = target: T1, rat ASIC1a (Rattus norvegicus, UniProt P55926); experiment: Two-electrode voltage clamp on X. laevis oocytes expressing rat ASIC1a; format: cell-based; settings: for IC50: X. laevis oocytes, pH drop 7.4 to 5.5, holding potential −50 mV, mean ± SEM of 5–6, read-out: IC50, inhibition of ASIC1a current; for maximal current block, ASIC1a: effect reversible
T1 construct: expressed in transfected cells; host or cells: Xenopus laevis oocytes (cRNA injection)
T1 sequence (P55926 1-526): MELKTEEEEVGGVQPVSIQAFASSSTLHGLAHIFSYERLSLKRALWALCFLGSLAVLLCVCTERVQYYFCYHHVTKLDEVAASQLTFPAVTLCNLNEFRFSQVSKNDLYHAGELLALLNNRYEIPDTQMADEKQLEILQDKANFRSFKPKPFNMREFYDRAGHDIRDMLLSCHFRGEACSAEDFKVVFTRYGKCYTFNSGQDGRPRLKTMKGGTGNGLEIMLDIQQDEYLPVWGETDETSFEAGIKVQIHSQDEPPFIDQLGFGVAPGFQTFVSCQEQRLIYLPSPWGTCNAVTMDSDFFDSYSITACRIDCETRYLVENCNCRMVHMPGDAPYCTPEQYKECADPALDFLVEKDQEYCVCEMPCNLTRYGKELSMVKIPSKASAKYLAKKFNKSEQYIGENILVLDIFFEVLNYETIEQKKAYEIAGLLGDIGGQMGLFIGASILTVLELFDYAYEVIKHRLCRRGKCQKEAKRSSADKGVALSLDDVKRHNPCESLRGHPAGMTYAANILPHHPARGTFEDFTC
Protocol: (§1) Testing the activity of synthetic sevanol (s706) (as a mixture of 75% of sevanol and 25% of isosevanol) and its analogues (s590, EA, and s788) was carried out by the standard two-electrode voltage clamp method on X. laevis oocytes expressing rat ASIC1a and ASIC3 channels. The activation of the channels was performed using a rapid change of the solution from conditioning pH 7.4 to a solution with pH 5.5. Sevanol and its two analogues, s590 and EA, inhibited ASIC1a and ASIC3 channels.
(§2) Oocytes were harvested from female frogs anaesthetized with tricaine methane sulfonate (MS222) (0.17% solution), and the surgery was performed in an ice bath to avoid heavy bleeding. Defolliculated stage IV and V cells were injected with 2.5 and 10 ng cRNA, synthesized from PCi plasmids containing the rat ASIC1a and rat ASIC3 isoforms, respectively, using the Nanoliter 2000 microinjection system (World Precision Instruments, USA). The injected oocytes were kept for 2–3 days at 17 to 19 °C, and then for up to 5 days at 15 °C in a ND96 medium containing (in mM) 96 NaCl, 2 KCl, 1.8 CaCl2, 1 MgCl2, and 5 HEPES titrated to pH 7.4 with NaOH supplemented with gentamycin (50 μg/mL). Two-electrode voltage clamp recordings were performed at a holding potential of −50 mV using a GeneClamp 500 amplifier (Axon Instruments), and the data were filtered at 20 Hz and digitized at 100 Hz by an AD converter L780 (LCard, Russia). Microelectrodes were filled with 3 M KCl. The conditioning bath solution was ND96; the pH was adjusted to 7.4. The activating test solution was constructed based on the ND-96 buffer, in which 5 mM HEPES was replaced with 10 mM MES and pH was adjusted to 5.5. A computer-controlled valve system was used to achieve a rapid solution exchange in the recording chamber. A four parameter logistic equation was used for the curve-fitting analysis: F(x) = ((a1 − a2)/(1 + (x/x0)n)) + a2, where x is the concentration of the compound; F(x) is the response value at a given concentration of the compound; a1 is the control response value (fixed at 100%); x0 is the IC50 value; n is the Hill coefficient (slope factor); and a2 is the response value at the maximal inhibition (% of control).
(§3) Figure 2 The inhibitory activity of sevanol (s706) and its analogues. Currents were elicited by a drop from pH 7.4 to 5.5; the holding potential was −50 mV; (A,C) are dose–response curves for s706, s590 and EA inhibitory effects on ASIC1a and ASIC3 channels, respectively; (B,D) are reciprocal IC50 values for s706, s590 and EA inhibitory effects on ASIC1a and ASIC3 channels, respectively. The data were fitted by the logistic equation. Each point is the mean ± SEM of 5–6 measurements. * p < 0.05, ** p < 0.005.

[5] = target: T2, rat ASIC3 (Rattus norvegicus, UniProt O35240); experiment: Two-electrode voltage clamp on X. laevis oocytes expressing rat ASIC3; format: cell-based; settings: for IC50: X. laevis oocytes, pH drop 7.4 to 5.5, holding potential −50 mV, mean ± SEM of 5–6, read-out: IC50, inhibition of ASIC3 current; for maximal current block, ASIC3: effect reversible
T2 construct: expressed in transfected cells; host or cells: Xenopus laevis oocytes (cRNA injection)
T2 sequence (O35240 1-533): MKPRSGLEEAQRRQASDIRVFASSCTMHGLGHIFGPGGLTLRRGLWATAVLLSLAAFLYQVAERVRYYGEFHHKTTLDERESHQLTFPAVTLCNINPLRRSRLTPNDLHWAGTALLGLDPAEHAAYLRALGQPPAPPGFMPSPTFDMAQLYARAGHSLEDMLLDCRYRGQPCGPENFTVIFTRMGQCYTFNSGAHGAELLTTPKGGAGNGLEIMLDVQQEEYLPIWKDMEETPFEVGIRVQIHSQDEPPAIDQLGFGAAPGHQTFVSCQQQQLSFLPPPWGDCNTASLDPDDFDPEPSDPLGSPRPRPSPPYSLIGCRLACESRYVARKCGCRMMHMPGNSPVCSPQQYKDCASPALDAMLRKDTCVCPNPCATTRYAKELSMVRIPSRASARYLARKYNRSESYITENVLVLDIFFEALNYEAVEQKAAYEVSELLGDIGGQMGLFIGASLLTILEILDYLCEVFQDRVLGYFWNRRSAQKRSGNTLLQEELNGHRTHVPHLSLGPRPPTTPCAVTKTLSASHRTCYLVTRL
Protocol: as §1, §2, §3

[6] = tested on: all of the functional isoforms of ASICs; parameters: method as in PMID 9261094; settings: read-out: IC50, inhibition of ASICs; cited from earlier work
[7] = tested on: ASIC currents; parameters: method as in PMID 16061325; settings: read-out: IC50, non-selective inhibition of ASIC currents; cited from earlier work

SMILES: Nc1c2ccccc2nc2ccccc12 [9-aminoacridine]
inhibition of ASIC1a [1]: inhibit ASIC1a in submillimolar concentrations

SMILES: CC(C)Cc1ccc(C(C)C(=O)O)cc1 (stereo not shown) [ibuprofen]
IC50 [2]: 350 µM

SMILES: CC(C(=O)O)c1ccc(-c2ccccc2)c(F)c1 (stereo not shown) [flurbiprofen]
IC50 [2]: 350 µM

SMILES: O=C(O)Cc1ccccc1Nc1c(Cl)cccc1Cl [diclofenac]
IC50 [3]: 92 µM

IC50 [4]: 415 ± 66 µM
maximal current block, ASIC1a ([4]; pH 7.4 to 5.5): 100%
IC50 [5]: 424 ± 33 µM
maximal current block, ASIC3 ([5]; pH 7.4 to 5.5): 100%
SMILES: O=C(O)C1=Cc2cc(O)c(O)cc2[C@@H](c2ccc(O)c(O)c2)[C@@H]1C(=O)O [EA, epiphyllic acid]
effectiveness in inhibiting ASIC3 relative to ASIC1a ([5]; ratio of ASIC1a and ASIC3 inhibition): acted equally on the ASIC1a and ASIC3 channels

SMILES: CC12CC3CC(C)(C1)CC(N)(C3)C2 [memantine]
inhibition of ASIC1a [1]: inhibit ASIC1a in submillimolar concentrations

SMILES: N=C(N)NC(=O)c1nc(Cl)c(N)nc1N [Amiloride]
IC50 [6]: 10 to 60 µM

SMILES: CC(C)C1c2cc(C3CC3c3ccc4cc(C(=N)N)ccc4c3)ccc2CCN1C (stereo not shown) [A-317567]
IC50 [7]: 2 to 30 µM

SMILES: CC(=O)Oc1ccccc1C(=O)O [aspirin]
IC50 [3]: 260 µM

IC50 [4]: 297 ± 41 µM
maximal current block, ASIC1a ([4]; pH 7.4 to 5.5): 100%
IC50 [5]: 241 ± 25 µM
maximal current block, ASIC3 ([5]; pH 7.4 to 5.5): 100%
SMILES: O=C(O)CC(OC(=O)C1=Cc2cc(O)c(O)cc2C(c2ccc(O)c(O)c2)C1C(=O)OC(CC(=O)O)C(=O)O)C(=O)O (stereo not shown) [s590, 2,2′-((1-(3,4-dihydroxyphenyl)-6,7-dihydroxy-1,2-dihydronaphthalene-2,3-dicarbonyl)bis(oxy))disuccinic acid]

activity on ASIC1a channel ([4]; pH 7.4 to 5.5): did not demonstrate any activity
activity on ASIC3 channel ([5]; pH 7.4 to 5.5): did not demonstrate any activity
SMILES: COC(=O)CC(C(=O)OC)C(OC(=O)C1=Cc2cc(O)c(O)cc2C(c2ccc(O)c(O)c2)C1C(=O)OC(C(=O)OC)C(CC(=O)OC)C(=O)OC)C(=O)OC (stereo not shown) [s788, Hexamethyl1,1′-((1-(3,4-dihydroxyphenyl)-6,7-dihydroxy-1,2-dihydronaphthalene-2,3-dicarbonyl)bis(oxy))bis(propane-1,2,3-tricarboxylate)]

— publication PMC7466040, “Sevanol and Its Analogues: Chemical Synthesis, Biological Effects and Molecular Docking” (Pharmaceuticals, 2020)
